Measurements: ChEMBL document CHEMBL5303573, “Mapping human microbiome drug metabolism by gut bacteria and their genes” (Nature, 2019)

Test: The drug is tested on Salmonella typhimurium strain: LT2 for biotransformation. The drug concentrations were measured before and after a 12-h incubation by liquid-chromatography-coupled mass spectrometry (LC–MS)
Settings: salmonella enterica subsp. enterica, 2 µM

| Structure (SMILES) | Bacterial Biotransformation |
| --- | --- |
| CCCC(=O)Nc1ccc(OCC(O)CNC(C)C)c(C(C)=O)c1 (stereo not given) [ACEBUTOLOL] | Compound NOT metabolized |
| C=CCc1ccccc1OCC(O)CNC(C)C (stereo not given) [ALPRENOLOL] | Compound NOT metabolized |
| O=P1(N(CCCl)CCCl)NCCCO1 (stereo not given) [CYCLOPHOSPHAMIDE ANHYDROUS] | Compound NOT metabolized |
| CC(C)NCC(O)COc1ccc(CC(N)=O)cc1 (stereo not given) [ATENOLOL] | Compound NOT metabolized |
| CN1CCN(C2=Nc3cc(Cl)ccc3Nc3ccccc32)CC1 [CLOZAPINE] | Compound NOT metabolized |

Test: The drug is tested on Bacteroides fragilis strain: T(B)9 for biotransformation. The drug concentrations were measured before and after a 12-h incubation by liquid-chromatography-coupled mass spectrometry (LC–MS)
Settings: 2 µM

| Structure (SMILES) | Bacterial Biotransformation |
| --- | --- |
| CN(C)CCC=C1c2ccccc2C=Cc2ccccc21 [CYCLOBENZAPRINE] | Compound NOT metabolized |
| CC(C)NCC(O)COc1ccc(CCOCC2CC2)cc1 (stereo not given) [BETAXOLOL] | Compound NOT metabolized |
| O=P1(N(CCCl)CCCl)NCCCO1 (stereo not given) [CYCLOPHOSPHAMIDE ANHYDROUS] | Compound NOT metabolized |
| c1ccc([C@H]2CN3CCSC3=N2)cc1 [LEVAMISOLE] | Compound metabolized |

Test: The drug is tested on Proteus penneri strain: ATCC35198 for biotransformation. The drug concentrations were measured before and after a 12-h incubation by liquid-chromatography-coupled mass spectrometry (LC–MS)
Settings: 2 µM

| Structure (SMILES) | Bacterial Biotransformation |
| --- | --- |
| CN(C)CCC=C1c2ccccc2C=Cc2ccccc21 [CYCLOBENZAPRINE] | Compound NOT metabolized |
| CC(C)NCC(O)COc1ccc(CCOCC2CC2)cc1 (stereo not given) [BETAXOLOL] | Compound NOT metabolized |
| O=P1(N(CCCl)CCCl)NCCCO1 (stereo not given) [CYCLOPHOSPHAMIDE ANHYDROUS] | Compound NOT metabolized |
| CC(C)NCC(O)COc1ccc(CC(N)=O)cc1 (stereo not given) [ATENOLOL] | Compound NOT metabolized |
| c1ccc([C@H]2CN3CCSC3=N2)cc1 [LEVAMISOLE] | Compound metabolized |
| CN1CCN(C2=Nc3cc(Cl)ccc3Nc3ccccc32)CC1 [CLOZAPINE] | Compound NOT metabolized |

Settings: clostridioides difficile, 12 h, 2 µM
Description: The drug is tested on Clostridium difficile strain: 120 for biotransformation. The drug concentrations were measured before and after a 12-h incubation by liquid-chromatography-coupled mass spectrometry (LC–MS)

| Structure (SMILES) | Bacterial Biotransformation |
| --- | --- |
| COc1ccccc1OCCNCC(O)COc1cccc2[nH]c3ccccc3c12 (stereo not given) [CARVEDILOL] | Compound NOT metabolized |
| CC(C)NCC(O)COc1ccc(CCOCC2CC2)cc1 (stereo not given) [BETAXOLOL] | Compound NOT metabolized |
| CCCC(=O)Nc1ccc(OCC(O)CNC(C)C)c(C(C)=O)c1 (stereo not given) [ACEBUTOLOL] | Compound NOT metabolized |
| CCOc1cc(CC(=O)N[C@@H](CC(C)C)c2ccccc2N2CCCCC2)ccc1C(=O)O [REPAGLINIDE] | Compound NOT metabolized |
| CC(C)NCC(O)COc1ccc(CC(N)=O)cc1 (stereo not given) [ATENOLOL] | Compound NOT metabolized |
| c1ccc([C@H]2CN3CCSC3=N2)cc1 [LEVAMISOLE] | Compound metabolized |

Test: The drug is tested on Eubacterium biforme strain: DSM3989 for biotransformation. The drug concentrations were measured before and after a 12-h incubation by liquid-chromatography-coupled mass spectrometry (LC–MS)
Settings: holdemanella biformis, 2 µM

| Structure (SMILES) | Bacterial Biotransformation |
| --- | --- |
| CN(C)CCC=C1c2ccccc2C=Cc2ccccc21 [CYCLOBENZAPRINE] | Compound NOT metabolized |
| O=P1(N(CCCl)CCCl)NCCCO1 (stereo not given) [CYCLOPHOSPHAMIDE ANHYDROUS] | Compound metabolized |
| c1ccc([C@H]2CN3CCSC3=N2)cc1 [LEVAMISOLE] | Compound NOT metabolized |
| CN1CCN(C2=Nc3cc(Cl)ccc3Nc3ccccc32)CC1 [CLOZAPINE] | Compound NOT metabolized |
